Experimental data reported in EP1285919A1, “C10 Carbonate substituted taxanes as antitumor agents” (Florida State University Research Foundation, Inc., priority 2001, dated 2003).
Like-named read-outs stand apart in the source and are kept apart here.

Assays:
[1] = system: HCT116; assay: In vitro cytotoxicity, cell colony formation assay; assay type: cell-based; conditions: read-out: IN VITRO ID 50
Procedure: In Vitro cytotoxicity measured by the cell colony formation assay
Four hundred cells (HCT116) were plated in 60 mm Petri dishes containing 2.7 mL of medium (modified McCoy's 5a medium containing 10% fetal bovine serum and 100 units/mL penicillin and […] streptomycin). The cells were incubated in a CO2 incubator at 37 °C for 5 h for attachment to the bottom of Petri dishes. The compounds identified in Example 2 were made up fresh in medium at ten times the final concentration, and then 0.3 mL of this stock solution was added to the 2.7 mL of medium in the dish. The cells were then incubated with drugs for 72 h at 37 ° C. At the end of incubation the drug-containing media were decanted, the dishes were rinsed with 4 mL of Hank's Balance Salt Solution (HBSS), 5 mL of fresh medium was added, and the dishes were returned to the incubator for colony formation. The cell colonies were counted using a colony counter after incubation for 7 days.

[2] = system: DU 145 Human Prostrate Carcinoma Xenografts; assay: In vivo evaluation against DU145 prostate carcinoma xenografts
Procedure: In Vivo Evaluation of Antitumor Compounds Against DU 145 Human Prostrate Carcinoma Xenografts
Antitumor compounds were prepared in a vehicle of 5% ethanol, 5% Cremophor and 90% isotonic saline in the manner as described for Solution 1 of Example 10. Taxol (paclitaxel; Bristol Meyers Squibb) was obtained as the marketed pharmaceutical drug. The dosing volume was 0.3 ml per 20 g mouse.
Male NCr-nude mice were implanted subcutaneously with 1 mm^3 DU145 prostate carcinoma fragments in the flank and sorted into treatment groups of five mice each. […] Dosing was initiated on Day 1. The antitumor compounds were given i.v. at an estimated maximum tolerated dose (MTD) appropriate for each agent on a qd x 1 schedule (single administration of compound). The i.v. Taxol was given on the qd x 1 schedule as two split doses (one hour between) of 12 mg/kg per split dose (total dose = 24 mg/kg). Taxol was also administered intraperitoneally (i.p.) on a qd x 5 schedule at a daily dose of 18 mg/kg. The vehicle was administered i.v. to control mice in Group 1 on the qd x 1 schedule. The study was terminated on Day 91. Treatment groups are detailed in Table 3.
The mean days of survival is the number of days after which a neoplasm reached a size of 1.5 g and the animal was euthanized. A complete response is obtained […]. […]

[3] = system: VM46 Human Colon Carcinoma; assay: In vivo evaluation against VM46 colon carcinoma xenografts; parameters: species or system NCr-nude mice; Mean Score: scale not given here
Procedure: In Vivo Evaluation of Antitumor Compounds Against VM46 Human Colon Carcinoma
The VM46 tumor group mean size range was 181-188 mg. Dosing was initiated on Day 1. […] Taxotere was given i.v. at a dose of 70 mg/kg on a qd x 1 schedule. […] The study was terminated on Day 64. Treatment groups are detailed in Table 11.

[4] = system: A2780 Human Ovarian Carcinoma Xenografts; assay: In vivo evaluation against A2780 ovarian carcinoma xenografts; parameters: species or system NCr-nude mice; Mean Score: scale not given here; conditions: for MDS (n): 2.0 g endpoint
Procedure: In Vivo Evaluation of Antitumor Compounds Against A2780 Human Ovarian Carcinoma Xenografts
The A2780 group mean size range was 237-243 mg. Dosing was initiated on Day 1. […] Treatment groups are detailed in Table 5.

[5] = Group 2: 24 mg/kg i.v. qd x 1 (two split doses of 12 mg/kg), 5 mice, study to Day 91
[6] = Group 3: 18 mg/kg i.p. qd x 5, 5 mice, study to Day 91
[7] = Group 2: 24 mg/kg i.v. qd x 1 (two split doses of 12 mg/kg), 6 mice, study to Day 64
[8] = Group 3: 15 mg/kg i.p. qd x 5, 6 mice, study to Day 64
[9] = Group 2: 24 mg/kg i.v. qd x 1 (two split doses of 12 mg/kg), 5 mice, study to Day 60
[10] = Group 3: 15 mg/kg i.p. qd x 5, 5 mice, study to Day 60
[11] = Group 4: i.v. qd x 1 at estimated MTD, 5 mice, study to Day 91
[12] = 1781 i.v. qd x 1 at estimated MTD
[13] = Group 4: 60 mg/kg i.v. qd x 1, 6 mice, study to Day 64
[14] = Group 4: 60.6 mg/kg i.v. qd x 1, 5 mice, study to Day 60

Structure (SMILES): CC(=O)O[C@H]1C(=O)[C@@]2(C)[C@H]([C@H](OC(=O)c3ccccc3)[C@]3(O)C[C@H](OC(=O)[C@H](O)[C@@H](NC(=O)c4ccccc4)c4ccccc4)C(C)=C1C3(C)C)[C@]1(OC(C)=O)CO[C@@H]1C[C@@H]2O [Taxol]
- IC50 ([1]; Homo sapiens, HCT-116): 2.1 nM
- MDS (n) ([2]; Group 2: 24 mg/kg i.v. qd x 1 (two split doses of 12 mg/kg), 5 mice, n=3, 1.5 g endpoint, study to Day 91): 37.4 ± 8.9 (3) days
- Complete Response [2, 5]: 0
- Mean Score [2, 5]: 2 ± 1
- Partial Response [2, 5]: 0
- Stable Disease [2, 5]: 1
- Survivors [2, 5]: 1
- Toxic Deaths [2, 5]: 1
- Complete Response [2, 6]: 0
- Mean Score [2, 6]: 0 ± 0
- Partial Response [2, 6]: 0
- Stable Disease [2, 6]: 0
- Survivors [2, 6]: 0
- Toxic Deaths [2, 6]: 5
- weight loss ([2]; Taxol 18 mg/kg i.p. qd x 5): more than 20%
- mice died of drug-related side effects ([2]; Taxol 18 mg/kg i.p. qd x 5, five mice): five
- increase in survival compared to Group 1 controls ([2]; Taxol 24 mg/kg i.v. qd x 1): 9%
- MDS ([2]; Taxol 24 mg/kg i.v. qd x 1, 1.5 g endpoint, three of five animals): 37.4 days
- MDS (n) ([3]; Group 2: 24 mg/kg i.v. qd x 1 (two split doses of 12 mg/kg), 6 mice, n=4, 1.5 g endpoint, study to Day 64): 43.3 ± 3.7 (4) days
- Complete Response [3, 7]: 0
- Mean Score [3, 7]: 3.8 ± 1.4
- Partial Response [3, 7]: 1
- Stable Disease [3, 7]: 1
- Toxic Deaths [3, 7]: 0
- MDS (n) ([3]; Group 3: 15 mg/kg i.p. qd x 5, 6 mice, n=2, 1.5 g endpoint, study to Day 64): 36.1 ± 12.2(2) days
- Complete Response [3, 8]: 0
- Mean Score [3, 8]: 1.8 ± 1.3
- Partial Response [3, 8]: 1
- Stable Disease [3, 8]: 0
- Toxic Deaths [3, 8]: 3
- mortalities ([3]; Taxol 15 mg/kg i.p. qd x 5, six treated animals): three
- MDS ([3]; i.v. qd x 1, Taxol 24 mg/kg (four mice), Taxotere 70 mg/kg, 1.5 g endpoint): 43.3 days
- Stable Disease ([3]; number of cases, Taxol 24 mg/kg i.v. qd x 1, six mice): one
- Partial Response ([3]; number of mice, Taxol 24 mg/kg i.v. qd x 1, six mice): one
- MDS (n) ([4]; Group 2: 24 mg/kg i.v. qd x 1 (two split doses of 12 mg/kg), 5 mice, n=5, study to Day 60): 21.9 ± 5.5 (5) days
- Complete Response [4, 9]: 0
- Mean Score [4, 9]: 1.8 ± 0.4
- Partial Response [4, 9]: 0
- Stable Disease [4, 9]: 0
- Survivors [4, 9]: 1
- Toxic Deaths [4, 9]: 0
- Complete Response [4, 10]: 0
- Mean Score [4, 10]: 0.6 ± 0.6
- Partial Response [4, 10]: 0
- Stable Disease [4, 10]: 0
- Survivors [4, 10]: 0
- Toxic Deaths [4, 10]: 4
- mice succumbed to drug-related side effects ([4]; Taxol 15 mg/kg i.p. qd x 5, five mice): four
- increase in survival / survival extension compared to Group 1 controls ([4]; i.v. qd x 1, Taxol 24 mg/kg, Taxotere 70 mg/kg): 87%
- MDS ([4]; i.v. qd x 1, Taxol 24 mg/kg, Taxotere 70 mg/kg, 2.0 g cut-off): 21.9 days
- Stable Disease ([4]; number of animals, Taxol 24 mg/kg i.v. qd x 1, Day 61): One

Structure (SMILES): CCOC(=O)O[C@H]1C(=O)[C@@]2(C)[C@H]([C@H](OC(=O)c3ccccc3)[C@]3(O)C[C@H](OC(=O)[C@H](O)[C@H](C=C(C)C)NC(=O)OC(C)(C)C)C(C)=C1C3(C)C)[C@]1(OC(C)=O)CO[C@@H]1C[C@@H]2O [Compound 1781]
- IC50 ([1]; HCT116, 72 h with drug, colonies counted after 7 days, concentration producing 50% inhibition of colony formation): < 1 nM
- weight loss ([2]; 1781 72.6 mg/kg i.v. qd x 1, in a number of treated mice prior to death): over 20%
- Complete Response [2, 11]: 0
- Mean Score [2, 11]: 0 ± 0
- Partial Response [2, 11]: 0
- Stable Disease [2, 11]: 0
- Survivors [2, 11]: 0
- Toxic Deaths [2, 11]: 5
- Toxic Deaths ([3]; 1781 i.v. qd x 1, six mice): no toxic deaths
- response rate [3, 12]: 16.7%
- MDS (n) ([3]; Group 4: 60 mg/kg i.v. qd x 1, 6 mice, n=5, 1.5 g endpoint, study to Day 64): 42.2 ± 7.1(5) days
- Complete Response [3, 13]: 0
- Mean Score [3, 13]: 3 ± 1.2
- Partial Response [3, 13]: 1
- Stable Disease [3, 13]: 0
- Toxic Deaths [3, 13]: 0
- tolerability ([3]; mouse, in vivo, iv): well-tolerated
- total response rate [4, 12]: at least 20%
- partial responses ([4]; 1781 i.v. qd x 1 at estimated MTD, five mice treated): 2
- MDS (n) ([4]; Group 4: 60.6 mg/kg i.v. qd x 1, 5 mice, n=2, study to Day 60): 38.5 ± 8.3 (2) days
- Complete Response [4, 14]: 0
- Mean Score [4, 14]: 6 ± 1.3
- Partial Response [4, 14]: 2
- Stable Disease [4, 14]: 1
- Survivors [4, 14]: 3
- Toxic Deaths [4, 14]: 0
